The results in this text go back to US6231894A, “Treatments based on discovery that nitric oxide synthase is a paraquat diaphorase” (Duke University, priority 1999, dated 2001).

The subject of data set [1] is CPA-47 endothelial cell line. The data set is described as follows: LDH release from endothelial cells (cytotoxicity). It is filed as cell-based. The following applies: 2 mM paraquat, 24 hours; FIG. 2(b). The protocol:
To test whether the above effect was present in intact cells, endothelial cell cultures, constitutively expressing NOS3 protein as determined by western blot analysis, were treated with 2 mM paraquat in the presence of increasing concentrations of either L-NAME or L-NMMA.
The endothelial cells were obtained as follows: CPA-47 endothelial cell line (CRL-1733) was purchased from American Type Culture Collection (Manassas, Va.). Endothelial cells were grown in T-75 flasks containing Ham's F-12 K medium supplemented by 1 mM […] and 10% equine serum (Gibco-BRL, Grand Island, N.Y.). Endothelial cells were plated at 3.5×10^4 cells/well in 24-well plates and experiments were performed 48 hours later when cells were near confluence. Medium was changed to minimal essential medium without serum supplement. Endothelial cells were from passages 30-36.
Cytotoxicity was measured as the percent release of LDH and compared to vehicl-treated cells (basal). The percent release of cytosolic lactate dehydrogenase (LDH) into the culture medium was used to assess the integrity of the cell membrane. LDH activity was measured by following the loss of NADH at 340 nm as described in Day, B. J., et al., J. Pharmacol. Exp. Ther. 275, 1227-1232 (1995). The percent release of LDH into the culture medium 24 hours after the paraquat treatment was used to assess cell injury.

Data set [2] addresses T1, Recombinant rat neuronal nitric oxide synthase (NOS1) (Rattus norvegicus, UniProt P29476).
T1 construct: purchased Oxis, Portland, Oreg
Put plainly: NADPH oxidation (paraquat diaphorase activity) by recombinant rat neuronal nitric oxide synthase. It is filed as biochemical. How it is done:
Recombinant rat neuronal nitric oxide synthase (NOS1, Oxis, Portland, Oreg.), a constitutive enzyme, was used to assay NADPH oxidation in the presence of increasing concentrations of paraquat. Reactions (0.2 ml) were performed in bis-tris propane buffer (40 mM) containing L-arginine (1 mM), CaCl2 (1.2 mM), EDTA (0.9 mM), NADPH (0.35 mM), dithiothreitol (3 mM), tetrahydrobiopterin (4 μM), catalase (1 μg/ml) and calmodulin (200 U/ml) at pH 7.4. Reactions were initiated by the addition of 1.5 U of NOS1, and the oxidation of NADPH was continuously monitored at 340 nm for 1 minute at 37° C. in a plate reader. The rate of NOS-mediated NADPH oxidation was determined using an extinction coefficient of 6.22 mM^-1 cm^-1 after subtracting the baseline of NADPH oxidation.
The experiment of Background Example 1 for NADPH oxidation was carried out in the presence and absence of 25 μM paraquat, without any NOS inhibitor (control), in the presence of L-NAME (1 mM) or in the presence of 1 mM L-NMMA. […] Only L-NAME shut down the NADPH oxidase activity.

The subject of a further data set is Rabbit aortic rings. The data set is described as follows: Exogenous NO-induced relaxation of aortic rings. Particulars: 2 mM paraquat, phenylephrine 1 μM; FIG. 3(b). The protocol: New Zealand white male rabbits weighting 3-4 kg were anaesthetized with phenobarbital (30 mg/kg/iv). The descending thoracic aorta was isolated and placed in Krebs-Henseleit buffer (pH 7.4) and stored at 4° C. until used. The vessels were cut into 5 mm rings and submerged in 25 ml double jacketed tissue baths containing Krebs-Henseleit buffer bubbled with 95% oxygen and 5% carbon dioxide at 37° C. Rings were hung on stainless steel stirrups connected to calibrated force transducers. Rings were equilibrated with 2 g resting tension for 1 hour before use and contracted with phenylephrine (1 μM). Rings were incubated with paraquat for 15 minutes before acetylcholine-induced or exogenous relaxations were performed.
In another case, rabbit aortic rings were constricted with 1 μM phenylephrine (initial contraction) and relaxed with increasing concentration of NO in the presence or absence of 2 mM paraquat. The results are shown in FIG. 3(b) where relaxations are expressed as a percent of the initial phenylephrine-induced contraction.

The subject of the next data set is restenosis. The data set is described as follows: Working Example VIII: restenosis patient. Particulars: 10 mg locally instilled via balloon, repeat angioplasty. It is filed as in vivo, human. The protocol: A person undergoes angioplasty of the left anterior descending coronary artery. Two weeks following procedure, they present with chest pain and the radiographic evidence of restenosis. They undergo repeat angioplasty with infusion of paraquat (dosage of 10 mg), locally instilled under pressure via the balloon.

In data set [3] the test system is RAW-264.7 monocyte macrophage cells. Put plainly: LDH release from macrophages (cytotoxicity). The class given is cell-based. How it is done: (§1) The RAW-264.7 monocyte macrophage cells line (TIB-71) was purchased from the American Type Culture Collection (Manassas, Va.). The cells were grown in T-75 flasks containing DMEM (Gibco-BRL, Grand Island, N.Y.) supplemented with 1 mM pyruvate, 4.5 g/L glucose and […] fetal bovine serum Macrophages were plated at 2.0×10^4 cells/well in 24-well plates and experiments were performed when cells were near confluence. Macrophages were immunostimulated with 50 ng/ml lipopolysaccharide (LPS) from E. coli serotype 0111:B4 (Signia, St. Louis, Mo.) and 50 U/ml recombinant mouse interferon gamma (INF-γ, R&D Systems, Minneapolis,Minn.). Macrophages were used between passages 2-8. Cell cultures were kept in a 37° C. incubator with air and 5% carbon dioxide.
(§2) NOS2 was induced in RAW cells using a mixture of interferon-γ and lipopolysaccharide (LPS) referred to as "cytomix." Unstimulated (basal) and activated (cytomix) macrophages were treated with 0.1 mM paraquat or not treated with paraquat and cytotoxicity and NO production were assessed at 24 hours.
Cell injury was assessed by measuring LDH release.
(§3) To further exclude the role of peroxynitrite, macrophages were treated with increasing concentrations of the NO-donor, DETA NONOate in the presence of 0.1 mM paraquat. Macrophage cytotoxicity and NO release were assessed 24 hours after treatments. Cell injury was assessed by measuring LDH release.

For data set [4] the test system is unchanged. Put plainly: NO production, nitrite plus nitrate, in macrophages. The class given is cell-based. Particulars: 0.1 mM paraquat, 24 hours. The protocol: as §1, §2
NO production, assessed by measuring the accumulation of the NO metabolites nitrite and nitrate 24 hours after cytomix treatment, is shown in FIG. 4(b). […] NOS2 expression was not affected (data not shown).
as §3

T1 sequence (P29476 whole entry): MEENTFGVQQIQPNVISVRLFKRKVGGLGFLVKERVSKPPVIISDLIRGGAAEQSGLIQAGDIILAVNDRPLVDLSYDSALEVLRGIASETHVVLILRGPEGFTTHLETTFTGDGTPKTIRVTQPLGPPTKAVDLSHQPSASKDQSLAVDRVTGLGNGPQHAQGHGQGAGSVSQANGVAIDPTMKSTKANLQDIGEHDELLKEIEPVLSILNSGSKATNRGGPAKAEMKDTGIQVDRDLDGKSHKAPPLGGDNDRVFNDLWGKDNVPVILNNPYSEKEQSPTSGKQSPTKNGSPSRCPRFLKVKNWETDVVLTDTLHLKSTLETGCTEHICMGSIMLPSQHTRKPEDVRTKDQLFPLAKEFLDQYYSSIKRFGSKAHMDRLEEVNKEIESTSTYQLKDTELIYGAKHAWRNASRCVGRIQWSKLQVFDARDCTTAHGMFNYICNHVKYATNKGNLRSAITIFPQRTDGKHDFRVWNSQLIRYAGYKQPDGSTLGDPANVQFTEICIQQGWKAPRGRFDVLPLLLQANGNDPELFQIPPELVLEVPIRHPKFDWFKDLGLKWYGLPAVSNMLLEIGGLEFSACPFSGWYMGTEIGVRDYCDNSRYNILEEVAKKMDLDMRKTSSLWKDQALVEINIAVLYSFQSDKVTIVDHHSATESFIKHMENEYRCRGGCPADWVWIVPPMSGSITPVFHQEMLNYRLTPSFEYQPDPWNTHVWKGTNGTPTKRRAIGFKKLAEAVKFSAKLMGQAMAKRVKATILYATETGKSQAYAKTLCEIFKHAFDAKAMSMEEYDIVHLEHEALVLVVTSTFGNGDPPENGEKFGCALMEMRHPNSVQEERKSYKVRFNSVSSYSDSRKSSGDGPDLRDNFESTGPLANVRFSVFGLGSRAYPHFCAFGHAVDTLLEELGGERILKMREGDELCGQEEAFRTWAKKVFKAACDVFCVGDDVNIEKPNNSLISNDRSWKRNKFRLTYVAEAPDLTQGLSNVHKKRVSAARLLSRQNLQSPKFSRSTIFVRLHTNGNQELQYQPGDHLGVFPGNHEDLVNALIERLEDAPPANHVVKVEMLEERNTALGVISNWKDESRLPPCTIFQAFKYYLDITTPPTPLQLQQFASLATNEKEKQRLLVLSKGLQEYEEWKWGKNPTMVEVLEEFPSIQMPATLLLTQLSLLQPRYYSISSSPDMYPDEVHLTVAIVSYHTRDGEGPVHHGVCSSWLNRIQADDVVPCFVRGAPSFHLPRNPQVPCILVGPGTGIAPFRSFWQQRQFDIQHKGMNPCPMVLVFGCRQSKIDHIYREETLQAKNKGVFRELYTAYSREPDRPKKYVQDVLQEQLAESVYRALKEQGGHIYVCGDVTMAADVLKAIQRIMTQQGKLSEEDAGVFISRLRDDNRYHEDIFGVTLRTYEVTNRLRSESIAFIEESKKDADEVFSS

Turning to `C[n+]1ccc(-c2cc[n+](C)cc2)cc1` [paraquat], the “increase in LDH release” value in data set [1] is on record as “three-fold”. Besides, the “increase in NADPH oxidation over the basal rate” value in data set [2] (25 μM paraquat without NOS inhibitor, FIG. 2(a)) is given as “about three-fold”. In data set [2] (conclusion of Background Example 1), the “NOS diaphorase / superoxide formation” value was “is an NOS diaphorase and causes superoxide formation”. In data set [2] (in the presence of 1 mM L-arginine), the “paraquat diaphorase activity of NOS1” value was “NOS1 was found to exhibit paraquat diaphorase activity”. In addition, the NADPH oxidation result in data set [2] (increasing paraquat concentrations, 1 mM L-arginine, pH 7.4, 37° C., FIG. 1(a)) was “concentration-dependent increase in NADPH oxidation”. Also, the “effect on exogenously added NO-induced relaxation” value with Rabbit aortic rings is listed as “did not inhibit exogenously added NO-induced relaxation”. For the same compound, the restenosis or angina entry in the data set with restenosis is “without further episode of restenosis or angina”. Further, the “cell injury (LDH release), single treatment” value in data set [3] (0.1 mM paraquat or cytomix alone, 24 hours, FIG. 4(a)) is recorded as “very little cell injury”. For the same compound, in data set [3] (0.1 mM paraquat plus cytomix, 24 hours, FIG. 4(a)), the “paraquat-induced cytotoxicity in activated macrophages” value is given as “potentiated in cytokine-activated macrophages”. The “effect of paraquat on DETA NONOate-induced cell injury” value in data set [3] (0.1 mM paraquat, higher DETA NONOate concentrations, 24 hours, FIG. 4(c)) is given as “DETA NONOate-induced cell injury was attenuated by paraquat”. The “cell killing / amelioration of toxicity, conclusion” value in data set [3] (conclusion of Background Example 4) is “kills cells containing NOS but not cells that do not”. Moreover, in data set [4] (FIG. 4(d)), the “formation of NO metabolites from DETA NONOate” value is “does not alter the formation of NO metabolites from DETA NONOate”. For the same compound, the “percent decrease in nitrite and nitrate compared with percent increase in cell death” value in data set [4] (cytomix-activated) was “percent decrease in nitrite and nitrate was greater than percent increase in cell death”. In data set [4] (cytomix-activated, FIG. 4(b)), the “NO production (nitrite and nitrate)” value is “significantly attenuated NO production”.
